We go through four molecules from patent US6737383B1, “Herbicidal oxadiazolidines” (priority 1999, dated 2004).

In test [1] the test system is spring wheat. As to the kind of experiment: Test E spring wheat. The test is classed as in vivo, Triticum aestivum. Particulars: Postemergence. In short, it runs like this: (§1)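 For postemergence, sowings are timed so plants reach the 1- to 4-leaf stage at spraying. Test compound is applied in a surfactant-containing solvent mixture that is non-phytotoxic. Response is judged by eye against untreated controls after approximately 21 to 28 days.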

Test [2] deals with large crabgrass. Description: Test C postemergence large crabgrass. The class given is in vivo, Digitaria sanguinalis. Particulars: 0 to 100 scale, 0 no effect, 100 complete control. How it is done:
(§2) Compounds evaluated in this test were formulated in a non-phytotoxic solvent mixture which included a surfactant and applied to plants that were grown for various periods of time before treatment (postemergence application). A mixture of sandy loam soil and greenhouse potting mix in a 60:40 ratio was used for the postemergence test.
(§3) Plantings of these crops and weed species were adjusted to produce plants of appropriate size for the postemergence test. All plant species were grown using normal greenhouse practices. Crop and weed species include arrowleaf sida (Sida rhombifolia), barnyardgrass (Echinochloa crus-galli), cocklebur (Xanthium strumarium), common ragweed (Ambrosia elatior), corn (Zea mays), cotton (Gossypium hirsutum), eastern black nightshade (Solanum ptycanthum), fall panicum (Panicum dichotomiflorum), field bindweed (Convolvulus arvensis), giant foxtail (Setaria faberii), hairy beggarticks (Bidens pilosa), ivyleaf morningglory (Ipomoea hederacea), johnsongrass (Sorghum halepense), ladysthumb smartweed (Polygonum persicaria), lambsquarters (Chenopodium album), large crabgrass (Digitaria sanguinalis), purple nutsedge (Cyperus rotundus), redroot pigweed (Amaranthus retroflexus), soybean (Glycine max), surinam grass (Brachiaria decumbens), velvetleaf (Abutilon theophrasti) and wild poinsettia (Euphorbia heterophylla).
(§4) Treated plants and untreated controls were maintained in a greenhouse for approximately 14, to 21 days, after which all treated plants were compared to untreated controls and visually evaluated. Plant response ratings, summarized in Table C, were based upon a 0 to 100 scale where 0 was no effect and 100 was complete control. A dash response (−) means no test result.

In test [3] the test system is spring barley. Description: Test E spring barley. The class given is in vivo, Hordeum vulgare. Particulars: Preemergence.
For test [4], the system named is velvetleaf. As to the kind of experiment: Test C postemergence velvetleaf. The class given is in vivo, Abutilon theophrasti. Particulars: 0 to 100 scale, 0 no effect, 100 complete control. In short, it runs like this:
(§5)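 Scores (0 = no effect, 100 = complete control) come from visual comparison with untreated controls after about 14–21 days. Spray formulation was a non-phytotoxic solvent mixture including surfactant; plants grew in a 60:40 sandy loam–potting mix blend.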

For test [5], the system named is corn. As to the kind of experiment: Test C postemergence corn. The class given is in vivo, Zea mays. Particulars: 0 to 100 scale, 0 no effect, 100 complete control. In short, it runs like this: as §5
Test [6] relates to Russian thistle. Description: Test E Russian thistle. The test is classed as in vivo, Salsola kali. Particulars: Preemergence.
Test [7] deals with arrowleaf sida. Description: Test C postemergence arrowleaf sida. The class given is in vivo, Sida rhombifolia. Particulars: 0 to 100 scale, 0 no effect, 100 complete control. The method, then:
as §2, §3, §4

Test [8] concerns Italian ryegrass. As to the kind of experiment: Test E Italian ryegrass. The test is classed as in vivo, Lolium multiflorum. Particulars: Postemergence. How it is done:
(§6) Compounds evaluated in this test were formulated in a non-phytotoxic solvent mixture which included a surfactant and applied to plants that were in the 1- to 4-leaf stage (postemergence application). A mixture of sandy loam soil and greenhouse potting mix in a 60:40 ratio was used for the postemergence test.
(§7) Plantings of these crops and weed species were adjusted to produce plants of appropriate size for the postemergence test. All plant species were grown using normal greenhouse practices. Crop and weed species include annual bluegrass (Poa annua), blackgrass (Alopecurus myosuroides), black nightshade (Solanum nigra), chickweed (Stellaria media), common poppy (Papaver rhoeas), deadnettle (Lamium amplexicaule), downy brome (Bromus tectorum), field violet (Viola arvensis), galium (Galium aparine), green foxtail (Setaria viridis), Italian ryegrass (Lolium multiflorum), jointed goatgrass (Aegilops cylindrica), kochia (Kochia scoparia), lambsquarters (Chenopodium album), littleseed canarygrass (Phalaris minor), rape (Brassica napus), redroot pigweed (Amaranthus retroflexus), Russian thistle (Salsola kali), scentless chamomile (Matricaria inodora), spring barley (Hordeum vulgare), sugar beet (Beta vulgaris), sunflower (Helianthus annuus), ivyleaf speedwell (Veronica hederaefolia), spring wheat (Triticum aestivum), winter wheat (Triticum aestivum), wild buckwheat (Polygonum convolvulus), wild mustard (Sinapis arvensis), wild oat (Avena fatua), windgrass (Apera spica-venti) and winter barley (Hordeum vulgare).
(§8) Treated plants and untreated controls were maintained in a greenhouse for approximately 21 to 28 days, after which all treated plants were compared to untreated controls and visually evaluated. […] A dash response (-) means no test result.

Test [9] concerns chickweed. Description: Test E chickweed. The test is classed as in vivo, Stellaria media. Particulars: Preemergence.
The subject of test [10] is redroot pigweed. As to the kind of experiment: Test C postemergence redroot pigweed. The class given is in vivo, Amaranthus retroflexus. Particulars: 0 to 100 scale, 0 no effect, 100 complete control. The method, then:
as §2, §3, §4

Test [11] has as its system deadnettle. As to the kind of experiment: Test E deadnettle. The class given is in vivo, Lamium amplexicaule. Particulars: Postemergence. In short, it runs like this:
as §1

Test [12] concerns chickweed. As to the kind of experiment: Test E chickweed. The test is classed as in vivo, Stellaria media. Particulars: Postemergence. How it is done:
as §6, §7, §8

Test [13] has as its system redroot pigweed. As to the kind of experiment: Test E redroot pigweed. Particulars: Preemergence. The test is classed as in vivo, Amaranthus retroflexus.
For test [14], the system named is barnyardgrass. As to the kind of experiment: Test A barnyardgrass. The test is classed as in vivo, Echinochloa crus-galli. Particulars: 0 to 10 scale where 0 is no effect and 10 is complete control. The method, then: Seeds of barnyardgrass (Echinochloa crus-galli), crabgrass (Digitaria spp.), morningglory (Ipomoea spp.), and velvetleaf (Abutilon theophrasti) were planted into a sandy loam soil and treated preemergence by soil drench with test chemicals formulated in a non-phytotoxic solvent mixture which includes a surfactant At the same time, these crop and weed species were also treated postemergence sprayed to runoff, with test chemicals formulated in the same manner.
Plants ranged in height from two to eighteen cm and were in the one to two leaf stage for the postemergence treatment. Treated plants and untreated controls were maintained in a greenhouse for approximately eleven days, after which all treated plants were compared to untreated controls and visually evaluated for injury. Plant response ratings, summarized in Table A, are based on a 0 to 10 scale where 0 is no effect and 10 is complete control.

[15] abbreviates: Rate 250 g/ha, 0 to 100 scale (0 no effect, 100 complete control).
Where [16] appears, read: Rate 62 g/ha, 0 to 100 scale, 0 no effect, 100 complete control.
[17] abbreviates: Rate 125 g/ha, 0 to 100 scale (0 no effect, 100 complete control).
Where [18] appears, read: Rate 500 g/ha, 0 to 100 scale, 0 no effect, 100 complete control.
The mark [19] stands for this setting: Rate 500 g/ha, 0 to 100 scale where 0 is no effect and 100 is complete control.

Regarding `CCn1c(=O)on(C(=O)N(c2ccc(F)cc2)C(C)C)c1=O` [Compound 107], the “Plant response rating, Spring Wheat” value is 0 in test [1] (Rate 62 g/ha, 0 to 100 scale); 5 in [1] (Rate 125 g/ha, 0 to 100 scale); 10 in [1] (setting [15]). The “Plant response rating Large crabgrass” value in [2] (Rate 140 g/ha) is given as 70; in test [2] (Rate 280 g/ha) it was 85; in [2] (Rate 560 g/ha) it was 95; in test [2] (Rate 1120 g/ha), 95. For the same molecule, the “Plant response rating, Spring Barley” value in [3] (setting [16]) turned out to be 30; in test [3] (setting [17]), 70; in test [3] (Rate 250 g/ha, 0 to 100 scale) it was 70. The “Plant response rating, Velvetleaf” value in [4] (Rate 140 g/ha) was found to be 5; in [4] (Rate 280 g/ha) it was 60; in test [4] (Rate 560 g/ha), 70; in test [4] (Rate 1120 g/ha), 75. Besides, the “Plant response rating, Corn” value was determined as 0 in test [5] (Rate 140 g/ha), 5 in test [5] (Rate 280 g/ha), 55 in test [5] (Rate 560 g/ha) and 60 in test [5] (Rate 1120 g/ha). The “Plant response rating, Russian thistle” value is given as 0 in [6] (setting [16]); 0 in test [6] (setting [17]); 10 in [6] (Rate 250 g/ha, 0 to 100 scale). The “Plant response rating Arrowleaf sida” value in test [7] (Rate 280 g/ha) is reported as 30; in [7] (Rate 560 g/ha), 75; in test [7] (Rate 1120 g/ha) it was 85. Moreover, the “Plant response rating, I. Ryegrass” value in [8] (Rate 62 g/ha, 0 to 100 scale) was found to be 0; in test [8] (Rate 125 g/ha, 0 to 100 scale) it was 50; in [8] (setting [15]), 30. For the same molecule, the “Plant response rating, Chickweed” value in test [9] (setting [16]) was 80; in test [9] (setting [17]), 50; in test [9] (Rate 250 g/ha, 0 to 100 scale), 50; in test [12] (Rate 62 g/ha, 0 to 100 scale), 10; in test [12] (Rate 125 g/ha, 0 to 100 scale), 0; in [12] (setting [15]), 0. Besides, the “Plant response rating, Redroot pigweed” value was found to be 75 in test [10] (Rate 280 g/ha); 80 in test [10] (Rate 560 g/ha); 80 in test [10] (Rate 1120 g/ha); 100 in [13] (setting [16]); 100 in test [13] (setting [17]); 100 in test [13] (Rate 250 g/ha, 0 to 100 scale). For the same molecule, the “Plant response rating, Deadnettle” value is 0 in [11] (Rate 62 g/ha, 0 to 100 scale); 5 in test [11] (Rate 125 g/ha, 0 to 100 scale); 50 in test [11] (setting [15]).
For the molecule `CCn1c(=O)on(C(=O)N(c2ccc(F)cc2F)C(C)C)c1=O` [Compound 116], the “Plant response rating, Spring Wheat” value in test [1] (Rate 62 g/ha, 0 to 100 scale) was 5; in test [1] (Rate 125 g/ha, 0 to 100 scale) it was 0; in [1] (setting [15]), 10; in test [1] (setting [18]), 10. In addition, the “Plant response rating Large crabgrass” value came to 0 in [2] (Rate 140 g/ha), 0 in [2] (Rate 280 g/ha), 30 in [2] (Rate 560 g/ha) and 90 in [2] (Rate 1120 g/ha). For the same molecule, the “Plant response rating, Spring Barley” value in test [3] (setting [17]) is 40; in test [3] (Rate 250 g/ha, 0 to 100 scale), 75; in test [3] (setting [19]), 100. The “Plant response rating, Velvetleaf” value in test [4] (Rate 140 g/ha) is 0; in test [4] (Rate 280 g/ha), 0; in test [4] (Rate 560 g/ha), 40; in [4] (Rate 1120 g/ha) it was 80. The “Plant response rating, Corn” value in test [5] (Rate 140 g/ha) is given as 0; in test [5] (Rate 280 g/ha), 0; in [5] (Rate 560 g/ha), 15; in [5] (Rate 1120 g/ha), 20. The “Plant response rating, Russian thistle” value came out at 0 in test [6] (setting [17]); 0 in test [6] (Rate 250 g/ha, 0 to 100 scale); 50 in test [6] (setting [19]). Moreover, the figures for the “Plant response rating Arrowleaf sida” value in test [7] (Rate 140 g/ha), in test [7] (Rate 560 g/ha) and in [7] (Rate 1120 g/ha) were 0, 85 and 90, respectively. The “Plant response rating, I. Ryegrass” value in test [8] (Rate 62 g/ha, 0 to 100 scale) is 0; in test [8] (Rate 125 g/ha, 0 to 100 scale) it was 50; in test [8] (setting [15]), 70; in test [8] (setting [18]), 0. Moreover, the “Plant response rating, Chickweed” value in test [9] (setting [17]) was 100; in test [9] (Rate 250 g/ha, 0 to 100 scale), 100; in [9] (setting [19]), 100; in test [12] (Rate 62 g/ha, 0 to 100 scale), 0; in test [12] (Rate 125 g/ha, 0 to 100 scale), 0; in test [12] (setting [15]), 20. Further, the “Plant response rating, Chickweed” value in test [12] (setting [18]) is listed as 50. For the same molecule, the “Plant response rating, Redroot pigweed” value in [10] (Rate 140 g/ha) was 0; in test [10] (Rate 280 g/ha), 0; in test [10] (Rate 560 g/ha) it was 0; in test [10] (Rate 1120 g/ha) it was 20; in test [13] (setting [17]) it was 100; in [13] (Rate 250 g/ha, 0 to 100 scale), 100. The “Plant response rating, Redroot pigweed” value in test [13] (setting [19]) was 100. Further, the “Plant response rating, Deadnettle” value in test [11] (Rate 62 g/ha, 0 to 100 scale) came to 0; in test [11] (Rate 125 g/ha, 0 to 100 scale), 0; in [11] (setting [15]), 20; in [11] (setting [18]), 50.
Turning to `CCOC(=O)Cn1c(=O)on(C(=O)N(c2ccc(F)cc2)C(C)C)c1=O` [Compound 128], the “Plant response rating, Barnyardgrass” value in test [14] (Postemergence, Rate 1000 g/ha) turned out to be 0; in [14] (Pre-emergence, Rate 2000 g/ha), 0.
For the molecule `Cc1ccccc1Cn1c(=O)on(C(=O)N(c2ccc(Cl)cc2)C(C)C)c1=O` [Compound 136], the “Plant response rating, Barnyardgrass” value in test [14] (Postemergence, Rate 1000 g/ha) turned out to be 4; in test [14] (Pre-emergence, Rate 2000 g/ha) it was 9.
